Reference: patent US20100267803A1, “Regulators Of Fat Metabolism As Anti-Cancer Targets” (The Research Foundation of State University Of New York, priority 2008, published 2010)

Columns and labels:
Format in all cases: cell-based, human
[1] = tested on: BT474 cells; experiment: RNAi screen, alamarBlue cell proliferation and viability; conditions: shRNA transfection
From the text: (§1) FIG. 1 An RNAi screen targeting genes overexpressed in breast cancer. (a) Three transfection mixes were produced for each shRNA and each was transfected into triplicate wells of BT474 cells. AlamarBlue was used to monitor cell proliferation and viability. […] (b) The genetic and functional linkage of NR1D1 and PBP. Mb refers to map position on chromosome 17. (c) ERBB2-overexpressing (OEX) and ERBB2 non-overexpressing (non-OEX) breast cancer cell lines as well as the (non-OEX) HMEC and HEK 293 cells were transfected and assayed as in (a). […] Genes clustered with ERBB2 are boxed.
Amplification of the ERBB2 oncogene occurs in 10-34% of breast cancer cases and is correlated with aggressive disease and poor clinical outcome^1. […] However, its success has been tempered by response rates of only 30% when used as a single agent therapy in patients with metastatic ERBB2-positive breast cancer^2. A large number of genes co-overexpressed with ERBB2 in this tumour type have been proposed to contribute to the aggressiveness of this cancer^3-5. Applicants have performed an unbiased functional RNAi screen^8-10 to determine if any of these co-overexpressed genes are essential for ERBB2 positive breast cancer cell survival.
RNAi screen, transfections and constructs. The flag-RevErba (flag-NR1D1) overexpression construct was a generous gift of M. Lazar. The LSXN-neu* (ERBB2) overexpression construct was a generous gift of L. Petti. shRNA constructs were expressed from the pSHAG-MAGIC 2 (pSM2) vector and derived from a genome-wide shRNA library^31. ShRNAs targeting the firefly (Photinus pyralis) luciferase gene were used as controls. Transfection efficiency was monitored by co-transfection with a modified MSCV-Puro vector expressing green fluorescent protein (GFP). The alamarBlue (Biosource) assay was performed 96 h post-transfection, since BT474 cells have a population doubling time of ˜100 hours. For mature sequences of the shRNAs that produced the best results on decreasing BT474 viability, Table S1; a complete list is available in the RNAi Codex web page (http://codex.cshl.edu). The shRNAs targeting the luciferase gene were constructed as described in the RNAi Codex web page (http://codex.cshl.edu/scripts/newmain.pl) using a modified pSM2 vector containing the PheS gene (pSM2-PheS) in the cloning site, as a negative selection marker. The empty vector control (pSM2e) was constructed by XhoI and EcoRI (New England Biolabs) digestion of pSM2-PheS, followed by nucleotide filling of protruding ends by Klenow polymerase and blunt-end ligation. Transfections were performed using FuGENE 6 and HD FuGENE (Roche) according to the manufacturer's protocol. High-throughput transfections were performed using an EpMotion 5070 fluidics station (Eppendorf). For quantification of alamarBlue we used a BioTek HT Synergy plate reader. AlamarBlue values from the RNAi screens on other cell types were also calculated as above and subjected to hierarchical cluster analysis using Cluster 2.11 (M. Eisen Lab).

[2] = tested on: BT474 cells; experiment: Apoptosis by cleaved Caspase-3 or activated Bax immunofluorescence; conditions: 48 h of shRNA or 20 μM GW9662
Protocol: (§2) Results are shown as percentage of control. (**P=0.03). (c) BT474 cells were transfected with luciferase (control), PBP and NR1D1 shRNAs and co-transfected with GFP. Green cells were counted at intervals and expressed as percentage of control. (Error bars are s.d from 3 individual experiments; *P<0.08, **P<0.03, ***P<0.005). (d) BT474 cells were transfected with luciferase (control), PBP or NR shRNAs for 48 h. Immunofluorescence was performed for cleaved Caspase-3 signal; cell nuclei were stained with Hoechst 33243. (e) Cells from […] were counted for cleaved Caspase-3 signal. (Error bars are s.d from 3 individual experiments; ***P<0.0003). (f) BT474 cells were transfected with luciferase (control) PBP, NR1D1 or PBP and NR1D1 shRNAs together and co-transfected with GFP. Transfected cells were counted at 24 h and 72 h and the 72 h-to-24 h ratio for each shRNA was calculated and expressed as % of the control shRNA (luciferase). (Error bars are s.d from 3 individual experiments; **P=0.01, ***P<0.002). (g) Cells from (f) were counted for cleaved Caspase-3 signal. (Error bars are s.d from 3 individual experiments; ***P<0.0001). (h) ERBB2 mRNA levels of BT474 cells transfected with luciferase (control), PBP or NR1D1 shRNAs for 48 h, analyzed by qRT-PCRs. (Error bars are s.d from 3 individual experiments; ***P=0.0001).
FIG. 3 PPAR. inhibition impacts NR1D1 expression and ERBB2-positive cells viability. (a) Cell counts of BT474, MDA-MB-361, MCF-7 and HMEC cells treated with vehicle, 10 and 20 μM of the PPAR. antagonist GW9662 for 72 hrs. Results represented as % of control (vehicle). (Error bars are s.d from 3 individual experiments; *P>0.2, **P<0.05, ***P<0.002). […] (c) Quantification of Caspase-3 signal. […] (d) aP2 and NR1D1 mRNA levels of BT474 cells treated with vehicle (control) and 20 μM of GW9662 for 48 h, analyzed by qRT-PCRs. […]
FIG. 5. (a) MDH1 and ME1 mRNA levels of BT474 cells treated with luciferase (control), PBP or NR1D1 shRNAs for 48 h, analyzed by qRT-PCRs. […] (d) Quantification of cleaved Caspase-3 signal from cells in (c). […]

[3] = tested on: BT474 cells; experiment: Counts of GFP co-transfected BT474 cells (cell death / viability); conditions: shRNA co-transfected with GFP, counted up to 72 h
Protocol: as §2
FIG. 4 NR1D1 and PBP coordinate fatty acid metabolism in breast cancer cells. (a) BT474, MDA-MB-361, MCF-7 and HMEC cells were stained with Oil-Red O lipid and hematoxylin nuclear stains. (b) Fat stores were quantified by BODIPY 493/503 lipid probe staining (Error bars are s.d from 3 individual experiments). (c) FASN, ACLY, ACACA and FADS2 mRNA levels of BT474 cells treated with luciferase (control), PBP or NR1D1 shRNAs, or with vehicle and 20 μM of GW9662 for 48 h, analyzed by qRT-PCRs. (Error bars are s.d from 3 experiments; ***P<0.001, **P=0.005) (d) BT474 cells were transfected with FASN, ACLY and ACACA shRNAs and co-transfected with GFP. Transfected cells were counted at 24 h and 72 h and the 72h-to-24 h ratio for each shRNA was calculated and expressed as % of the control shRNA (luciferase). (Error bars are s.d from 3 individual experiments; **P<0.01, ***P<0.002). (e) BODIPY images and (f) quantification of BT474 cells transfected with luciferase (control), PBP or NR1D1 shRNAs and co-transfected with DsRed (Error bars are s.d from 3 individual experiments; ***P<0.03). Arrows indicate transfected cells.
FIG. 5. (a) MDH1 and ME1 mRNA levels of BT474 cells treated with luciferase (control), PBP or NR1D1 shRNAs for 48 h, analyzed by qRT-PCRs. (Error bars are s.d from 3 experiments; **P<0.002 (b) BT474 and MCF-7 cells were transfected with luciferase (control) MDH1 and ME1 shRNAs (Error bars are s.d from 3 individual experiments; ***P=0.0003). (c) BT474 cells) assayed for cleaved Caspase-3 signal by immunofluorescence 48 h after transfection; cell nuclei were stained with Hoechst 33243. (d) Quantification of cleaved Caspase-3 signal from cells in (c). (Error bars are s.d from 3 individual experiments; ***P<0.005). (e) Enzymes involved in fatty acid synthesis and storage that are regulated by NR1D1 and PBP and their proposed contribution to energy production necessary for survival of ERBB2-positive breast cancer cells.
(§3) Cell viability—apoptosis assays. […] At least 30 fields were imaged per single experiment. […] Immunoblotting. […] PCR reaction was run using standard conditions.

[4] = tested on: nonoverexpressing breast cancer cell lines (MCF-7, MDA-MB-453, MDA-MB-468), HMECs, HEK 293FT; experiment: alamarBlue proliferation of shRNA-transfected ERBB2 non-overexpressing cell lines; conditions: MCF-7, MDA-MB-453, MDA-MB-468, HMEC, shRNA transfection
From the text: as §1
(§4) To assess the specificity of effect of each shRNA on cell proliferation, those causing the greatest decrease in BT474 cell proliferation were transfected in a variety of cell lines, including ERBB2 overexpressing (BT474, MDA-MB-361) and nonoverexpressing breast cancer cell lines (MCF-7, MDA-MB-453, MDA-MB-468), normal human mammary epithelial cells (HMECs) and a non-breast tumorigenic cell line (HEK 293FT). […] PBP, NRID1 and PFN2 shRNAs clustered with ERBB2.
(§5) RNAi screen, transfections and constructs. The flag-RevErba (flag-NR1D1) overexpression construct was a generous gift of M. Lazar. The LSXN-neu* (ERBB2) overexpression construct was a generous gift of L. Petti. shRNA constructs were expressed from the pSHAG-MAGIC 2 (pSM2) vector and derived from a genome-wide shRNA library^31. ShRNAs targeting the firefly (Photinus pyralis) luciferase gene were used as controls. Transfection efficiency was monitored by co-transfection with a modified MSCV-Puro vector expressing green fluorescent protein (GFP). The alamarBlue (Biosource) assay was performed 96 h post-transfection, since BT474 cells have a population doubling time of ˜100 hours. […] For quantification of alamarBlue we used a BioTek HT Synergy plate reader. AlamarBlue values from the RNAi screens on other cell types were also calculated as above and subjected to hierarchical cluster analysis using Cluster 2.11 (M. Eisen Lab).

[5] = tested on: ERBB2 overexpressing (BT474, MDA-MB-361) breast cancer cell lines; experiment: alamarBlue proliferation of shRNA-transfected ERBB2-overexpressing cell lines; conditions: shRNA transfection
From the text: as §1, §4, §5

[6] = tested on: BT474, MDA-MB-361, MCF-7 and HMEC cells; experiment: Cell counts after PPARγ antagonist treatment; conditions: 10 and 20 μM for 72 hrs; % of vehicle
Protocol: FIG. 3 PPAR. inhibition impacts NR1D1 expression and ERBB2-positive cells viability. (a) Cell counts of BT474, MDA-MB-361, MCF-7 and HMEC cells treated with vehicle, 10 and 20 μM of the PPAR. antagonist GW9662 for 72 hrs. Results represented as % of control (vehicle). (Error bars are s.d from 3 individual experiments; *P>0.2, **P<0.05, ***P<0.002). (b) BT474 cells treated with vehicle or 20 μM of GW9662 for 48 h were immuno-stained for cleaved Caspase-3. (c) Quantification of Caspase-3 signal. (Error bars are s.d from 3 individual experiments; ***P=0.002). (d) aP2 and NR1D1 mRNA levels of BT474 cells treated with vehicle (control) and 20 μM of GW9662 for 48 h, analyzed by qRT-PCRs. (Error bars are s.d from 3 experiments; ***P<0.0006. (e) BMAL1-luc activity of BT474 cells treated with vehicle or 20 μM of GW9662 for 48 h. (Error bars are s.d from 3 individual experiments; **P=0.03). (f) Total ERBB2 western blot of BT474 cells treated with vehicle or 20 μM GW9662 for 72h. GAPDH was used as control.
as §3

Row | Molecule | effect on cell proliferation [1] | cell death / viability (cell number of transfected cells) [3] | other results
1 | FADS2 shRNA: shRNA, mature sequence CCCATAGGGAGCTGATCGT (shRNA) | moderate effect on cell proliferation | – | –
2 | MDH1 shRNA: shRNA, mature sequence CGAGCTAAAGCTCAAATTG (shRNA) | – | cell death | apoptosis [2]: apoptosis
3 | MAP2K6 shRNA: shRNA, mature sequence CAGATGACCTGGAGCCTAT (shRNA) | most dramatic effect on cell proliferation | – | –
4 | CA9 shRNA: shRNA, mature sequence CTTTGAATGGGCGAGTGAT (shRNA) | significant effects on proliferation | – | –
5 | PFN2 shRNA: shRNA, mature sequence AGCATTACGCCAATAGAAA (shRNA) | – | – | effect on other cell lines or HMECs [4]: without effect on other cell lines or HMECs; viability of ERBB2-positive cells [5]: specifically decreased the viability of ERBB2-positive cells
6 | TPD52 shRNA: shRNA, mature sequence CTGTGAGATTCCTACCTTT (shRNA) | significant effects on proliferation | – | –
7 | FASN shRNA: shRNA, mature sequence CTGGCCCAGGCTGAAGTTT (shRNA) | moderate effect on cell proliferation | significantly decreased BT474 cell viability | –
8 | ME1 shRNA: shRNA, mature sequence GGCTTTATCCTCCTTTGAA (shRNA) | – | cell death | apoptosis [2]: apoptosis
9 | O=C(Nc1ccncc1)c1cc([N+](=O)[O-])ccc1Cl [second PPARγ antagonist] | – | – | sensitivity of cells to drug treatment (cell counts) [6]: produced the same effects
10 | ACLY shRNA: shRNA, mature sequence GGGAGGAAGCTGATGAATA (shRNA) | – | significantly decreased BT474 cell viability | –
11 | MKI67 shRNA: shRNA, mature sequence GCTACAAACTCCTAAGGAA (shRNA) | significant effects on proliferation | – | –
12 | ACACA shRNA: shRNA, mature sequence CACATGACCTTAAGATTAT (shRNA) | – | significantly decreased BT474 cell viability | –
